Results taken from ChEMBL document CHEMBL1201862, “PubChem BioAssay data set” (2004).
Calls of active or inactive are those of the source.

What was measured:
[1] = biological target: T1, Aminopeptidase N (Plasmodium falciparum FcB1/Columbia, UniProt O96935); assay: malaria alanyl aminopeptidase activity blockers – biochemical, fluorogenic H-Leu-NHMec substrate, 1536-well (AID 1445); design: species or system Plasmodium falciparum 3D7, 3D7
T1 sequence (O96935 whole entry): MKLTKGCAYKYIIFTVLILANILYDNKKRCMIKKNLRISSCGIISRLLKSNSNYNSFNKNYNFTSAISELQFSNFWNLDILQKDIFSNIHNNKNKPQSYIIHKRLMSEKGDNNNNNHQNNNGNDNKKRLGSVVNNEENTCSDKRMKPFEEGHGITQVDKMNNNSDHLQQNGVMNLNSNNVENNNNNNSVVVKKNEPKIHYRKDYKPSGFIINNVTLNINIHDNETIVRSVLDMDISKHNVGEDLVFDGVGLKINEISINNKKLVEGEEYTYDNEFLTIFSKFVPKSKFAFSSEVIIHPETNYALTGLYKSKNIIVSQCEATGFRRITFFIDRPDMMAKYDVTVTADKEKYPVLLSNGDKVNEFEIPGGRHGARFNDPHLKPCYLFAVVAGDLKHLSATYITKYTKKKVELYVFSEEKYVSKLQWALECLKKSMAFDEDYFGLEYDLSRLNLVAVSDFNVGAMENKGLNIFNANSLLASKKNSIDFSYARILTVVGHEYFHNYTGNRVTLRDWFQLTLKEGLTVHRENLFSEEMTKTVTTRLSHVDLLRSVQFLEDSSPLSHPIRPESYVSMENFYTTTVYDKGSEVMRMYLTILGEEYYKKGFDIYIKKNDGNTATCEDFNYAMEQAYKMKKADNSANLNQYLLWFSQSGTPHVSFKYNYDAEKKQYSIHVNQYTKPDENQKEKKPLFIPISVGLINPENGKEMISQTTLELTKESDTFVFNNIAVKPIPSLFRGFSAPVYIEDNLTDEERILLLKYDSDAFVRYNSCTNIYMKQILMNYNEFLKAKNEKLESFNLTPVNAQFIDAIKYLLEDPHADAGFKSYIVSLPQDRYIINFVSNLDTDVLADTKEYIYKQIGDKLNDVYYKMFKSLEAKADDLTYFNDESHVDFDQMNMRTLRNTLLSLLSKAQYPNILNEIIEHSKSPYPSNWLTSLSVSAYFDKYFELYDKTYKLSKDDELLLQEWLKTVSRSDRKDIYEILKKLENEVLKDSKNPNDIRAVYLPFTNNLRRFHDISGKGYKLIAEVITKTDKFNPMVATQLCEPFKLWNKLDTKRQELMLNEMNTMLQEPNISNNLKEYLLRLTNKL

[2] = biological target: DNA dC->dU-editing enzyme APOBEC-3A (Homo sapiens, UniProt P31941); assay: Dose Response confirmation of small molecule APOBEC3A DNA Deaminase Inhibitors via a fluorescence-based single-stranded DNA deaminase assay. [Related pubchem assays (depositor defined):AID493011, AID493024]; assay type: functional
DNA dC->dU-editing enzyme APOBEC-3A, sequence (P31941 whole entry): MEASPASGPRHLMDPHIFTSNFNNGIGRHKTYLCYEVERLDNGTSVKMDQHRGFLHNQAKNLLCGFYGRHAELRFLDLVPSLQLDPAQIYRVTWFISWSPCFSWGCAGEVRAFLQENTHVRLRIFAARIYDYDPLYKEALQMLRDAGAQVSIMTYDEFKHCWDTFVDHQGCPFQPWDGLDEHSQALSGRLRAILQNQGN

[3] = biological target: DNA dC->dU-editing enzyme APOBEC-3G (Homo sapiens, UniProt Q9HC16); assay type: functional;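 also: Dose-response counterscreen measuring inhibition of APOBEC3G DNA deaminase activity, run while confirming APOBEC3A inhibitors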
DNA dC->dU-editing enzyme APOBEC-3G, sequence (Q9HC16 whole entry): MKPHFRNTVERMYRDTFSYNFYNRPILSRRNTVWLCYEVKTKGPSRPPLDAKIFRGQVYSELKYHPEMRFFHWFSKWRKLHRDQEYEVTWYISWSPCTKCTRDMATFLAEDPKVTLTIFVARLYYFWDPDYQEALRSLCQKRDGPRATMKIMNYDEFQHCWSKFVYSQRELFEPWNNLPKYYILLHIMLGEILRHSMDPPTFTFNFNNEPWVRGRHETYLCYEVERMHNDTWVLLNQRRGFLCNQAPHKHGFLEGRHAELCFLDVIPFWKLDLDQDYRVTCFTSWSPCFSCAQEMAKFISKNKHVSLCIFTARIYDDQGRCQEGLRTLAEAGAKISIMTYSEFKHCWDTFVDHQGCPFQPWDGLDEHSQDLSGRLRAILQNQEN

[4] = biological target: T2, Leucine aminopeptidase (Plasmodium falciparum 3D7, UniProt Q8IL11); assay: P. falciparum M17LAP inhibitors, primary screen, biochemical, fluorogenic H-Leu-NHMec substrate, 1536-well (AID 1619); assay type: functional
T2 sequence (Q8IL11 whole entry): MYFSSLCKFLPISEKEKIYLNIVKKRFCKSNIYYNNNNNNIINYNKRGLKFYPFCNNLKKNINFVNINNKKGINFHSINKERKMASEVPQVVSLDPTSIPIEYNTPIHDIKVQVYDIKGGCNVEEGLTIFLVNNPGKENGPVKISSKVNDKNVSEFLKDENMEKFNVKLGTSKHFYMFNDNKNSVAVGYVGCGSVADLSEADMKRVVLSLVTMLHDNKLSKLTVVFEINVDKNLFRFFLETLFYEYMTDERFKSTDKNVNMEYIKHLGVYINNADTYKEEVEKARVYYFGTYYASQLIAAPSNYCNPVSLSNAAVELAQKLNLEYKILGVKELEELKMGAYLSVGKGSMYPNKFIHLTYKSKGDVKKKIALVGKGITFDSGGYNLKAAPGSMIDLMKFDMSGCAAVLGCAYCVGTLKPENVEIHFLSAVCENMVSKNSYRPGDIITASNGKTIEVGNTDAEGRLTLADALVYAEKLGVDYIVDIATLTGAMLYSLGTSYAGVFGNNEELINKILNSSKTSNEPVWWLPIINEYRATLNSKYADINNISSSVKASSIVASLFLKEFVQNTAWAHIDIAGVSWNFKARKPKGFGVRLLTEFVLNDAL

[5] = biological target: T3, Short transient receptor potential channel 4 (Mus musculus, UniProt Q9QUQ5); assay: calcium entry via TRPC4 opening agents – cell-based, HEK293 TRPC4/mu-opioid, Fluo-4 calcium, dose response (AID 434937); assay type: functional
T3 sequence (Q9QUQ5 whole entry): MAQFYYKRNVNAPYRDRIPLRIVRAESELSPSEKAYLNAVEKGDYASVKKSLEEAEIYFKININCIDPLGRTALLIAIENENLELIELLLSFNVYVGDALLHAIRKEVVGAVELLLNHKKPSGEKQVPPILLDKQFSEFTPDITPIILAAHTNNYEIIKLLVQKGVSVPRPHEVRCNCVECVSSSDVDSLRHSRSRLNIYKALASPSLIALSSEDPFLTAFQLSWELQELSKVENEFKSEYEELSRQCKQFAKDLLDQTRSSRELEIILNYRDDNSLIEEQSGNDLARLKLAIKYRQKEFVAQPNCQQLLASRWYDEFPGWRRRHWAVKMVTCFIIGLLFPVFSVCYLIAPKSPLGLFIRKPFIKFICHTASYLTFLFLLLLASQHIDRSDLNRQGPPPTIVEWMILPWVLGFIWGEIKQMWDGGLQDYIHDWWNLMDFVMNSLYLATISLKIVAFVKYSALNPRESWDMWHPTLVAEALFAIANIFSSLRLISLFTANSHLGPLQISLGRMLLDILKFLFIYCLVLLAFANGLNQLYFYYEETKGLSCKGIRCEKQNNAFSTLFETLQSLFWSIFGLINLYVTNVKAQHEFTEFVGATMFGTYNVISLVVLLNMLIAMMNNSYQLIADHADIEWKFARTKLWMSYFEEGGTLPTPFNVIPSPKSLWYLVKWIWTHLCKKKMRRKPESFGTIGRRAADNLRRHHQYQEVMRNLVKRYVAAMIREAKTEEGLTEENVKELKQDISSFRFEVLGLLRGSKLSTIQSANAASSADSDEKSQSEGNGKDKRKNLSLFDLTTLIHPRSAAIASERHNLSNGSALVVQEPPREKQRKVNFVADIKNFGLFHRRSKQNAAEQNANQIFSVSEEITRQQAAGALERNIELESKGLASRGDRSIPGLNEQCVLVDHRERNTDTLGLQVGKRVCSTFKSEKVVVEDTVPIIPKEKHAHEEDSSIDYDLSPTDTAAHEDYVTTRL

[6] = biological target: T3, Short transient receptor potential channel 4; assay: block of DAMGO-driven TRPC4 calcium entry – cell-based, HEK293 TRPC4/mu-opioid, Fluo-4 calcium, dose response (AID 434942); assay type: functional;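 also: potency of inhibitors blocking the TRPC4 calcium response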
[7] = biological target: T4, Corticotropin-releasing factor receptor 2/Corticotropin-releasing factor-binding protein (Homo sapiens, UniProt P24387+Q13324); assay: activators of CRF receptor 2 with binding protein – uHTS hits, confirmation (AID 602473); assay type: functional; settings: read-out: EC50_Mean
T4 sequence (Q13324 whole entry): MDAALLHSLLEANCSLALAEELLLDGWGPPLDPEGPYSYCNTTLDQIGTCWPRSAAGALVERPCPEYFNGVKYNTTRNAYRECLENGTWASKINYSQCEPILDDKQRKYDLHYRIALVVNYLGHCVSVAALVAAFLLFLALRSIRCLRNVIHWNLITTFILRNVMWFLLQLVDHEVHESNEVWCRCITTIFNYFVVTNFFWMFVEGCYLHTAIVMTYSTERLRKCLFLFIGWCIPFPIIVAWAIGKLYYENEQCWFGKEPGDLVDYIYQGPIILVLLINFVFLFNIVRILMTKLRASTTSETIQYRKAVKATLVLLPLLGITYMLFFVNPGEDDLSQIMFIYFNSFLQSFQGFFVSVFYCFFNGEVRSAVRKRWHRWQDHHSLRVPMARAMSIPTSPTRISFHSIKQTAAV
T4 sequence (P24387 whole entry): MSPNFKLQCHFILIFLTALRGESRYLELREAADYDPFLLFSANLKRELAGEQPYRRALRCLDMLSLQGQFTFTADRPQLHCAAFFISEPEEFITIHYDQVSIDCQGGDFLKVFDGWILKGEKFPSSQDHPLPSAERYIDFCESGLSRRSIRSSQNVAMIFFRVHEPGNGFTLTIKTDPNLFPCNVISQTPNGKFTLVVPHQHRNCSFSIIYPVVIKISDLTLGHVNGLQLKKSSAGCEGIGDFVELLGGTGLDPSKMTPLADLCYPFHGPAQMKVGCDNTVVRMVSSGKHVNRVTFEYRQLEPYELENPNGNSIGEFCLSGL

[8] = biological target: Cytochrome P450 3A4 (Homo sapiens, UniProt P08684);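 also: CYP3A4 tested as one member of a cytochrome P450 panel screen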
Cytochrome P450 3A4, sequence (P08684 whole entry): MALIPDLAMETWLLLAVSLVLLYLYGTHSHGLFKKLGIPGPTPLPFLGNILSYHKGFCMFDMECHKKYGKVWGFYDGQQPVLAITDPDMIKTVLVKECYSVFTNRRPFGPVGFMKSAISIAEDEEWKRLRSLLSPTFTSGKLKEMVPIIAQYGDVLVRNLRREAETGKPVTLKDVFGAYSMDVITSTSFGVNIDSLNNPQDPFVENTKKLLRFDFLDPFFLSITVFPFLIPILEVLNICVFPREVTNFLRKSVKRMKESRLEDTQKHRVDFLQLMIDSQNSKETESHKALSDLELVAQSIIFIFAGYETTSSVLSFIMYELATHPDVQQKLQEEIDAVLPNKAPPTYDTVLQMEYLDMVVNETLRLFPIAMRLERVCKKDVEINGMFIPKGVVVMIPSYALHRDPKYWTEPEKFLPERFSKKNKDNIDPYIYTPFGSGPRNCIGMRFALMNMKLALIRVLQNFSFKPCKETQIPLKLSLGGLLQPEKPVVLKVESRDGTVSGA

[9] = NIH-3T3 fibroblast cytotoxicity, dose response, cytotoxicity control, cell-based, fluorescence, Alamar Blue, secondary assay (AID 2327); assay type: functional;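 also: NIH-3T3 mouse fibroblasts cultured with fluconazole at 8 µg/mL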
[10] = biological target: Nucleotide-binding oligomerization domain-containing protein 2 (Homo sapiens, UniProt Q9HC29); assay: inhibition of NOD2-driven NF-kB reporter – cell-based, luminescence, uHTS, HEK293 (AID 1566); assay type: functional
Nucleotide-binding oligomerization domain-containing protein 2, sequence (Q9HC29 whole entry, the tested form may be a part): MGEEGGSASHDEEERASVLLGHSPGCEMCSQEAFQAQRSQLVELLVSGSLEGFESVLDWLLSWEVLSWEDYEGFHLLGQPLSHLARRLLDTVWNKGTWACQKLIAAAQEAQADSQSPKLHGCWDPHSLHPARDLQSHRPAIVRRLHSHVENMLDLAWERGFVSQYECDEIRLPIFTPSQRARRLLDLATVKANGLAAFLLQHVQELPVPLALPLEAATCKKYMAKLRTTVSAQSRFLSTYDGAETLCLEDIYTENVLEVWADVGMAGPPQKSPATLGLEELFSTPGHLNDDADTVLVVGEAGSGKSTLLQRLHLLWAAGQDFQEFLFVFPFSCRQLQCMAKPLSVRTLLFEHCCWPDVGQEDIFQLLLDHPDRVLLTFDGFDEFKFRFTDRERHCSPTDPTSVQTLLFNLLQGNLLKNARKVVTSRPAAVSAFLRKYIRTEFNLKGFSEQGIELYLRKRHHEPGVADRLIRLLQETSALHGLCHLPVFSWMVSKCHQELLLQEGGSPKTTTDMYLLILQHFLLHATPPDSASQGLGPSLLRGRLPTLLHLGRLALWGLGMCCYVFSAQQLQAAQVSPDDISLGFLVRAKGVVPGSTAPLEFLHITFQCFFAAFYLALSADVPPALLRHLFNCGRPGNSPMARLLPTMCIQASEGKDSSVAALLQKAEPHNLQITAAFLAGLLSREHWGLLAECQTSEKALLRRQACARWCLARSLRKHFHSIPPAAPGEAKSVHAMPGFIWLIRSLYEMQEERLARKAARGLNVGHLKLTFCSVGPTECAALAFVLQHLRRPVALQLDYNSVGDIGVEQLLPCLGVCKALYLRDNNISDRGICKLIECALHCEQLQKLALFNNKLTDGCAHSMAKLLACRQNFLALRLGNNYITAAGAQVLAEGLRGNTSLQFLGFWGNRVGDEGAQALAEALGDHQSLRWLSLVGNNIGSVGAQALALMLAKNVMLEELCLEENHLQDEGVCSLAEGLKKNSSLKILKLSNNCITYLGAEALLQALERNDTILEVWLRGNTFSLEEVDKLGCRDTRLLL

[11] = tested on: HEK293; assay: cells; assay type: functional, cell-based; settings: Homo sapiens
[12] = tested on: HEK293; assay: NOD2 signaling inhibitors in MDP-stimulated cells, cell-based, uHTS, luminescence (AID 2001); assay type: functional; settings: Homo sapiens
[13] = tested on: HEK293; assay: cells; assay type: functional, cell-based; settings: Homo sapiens; remark: listed apart in the source
[14] = cells; assay type: functional
[15] = fluconazole-exposed Candida albicans growth modulators – fluorescence, retest, confirmation (AID 2467); assay type: functional, cell-based
[16] = tested on: HEK293; assay: inhibition of NOD1-driven NF-kB reporter – cell-based, luminescence, uHTS, primary screen (AID 1578); assay type: functional; settings: Homo sapiens
[17] = tested on: HEK293; assay: cells; assay type: functional, cell-based; settings: Homo sapiens; remark: listed apart in the source

In the case of `COc1cc(OC)c(NC(=O)c2ccc3c(SCC(=O)O)c4c(nc3c2)CCCC4)cc1Cl`, the IC50 [1] is reported as 31.6 µM (active).

For `CCc1ccc(/C=C/c2c[nH]c3ccccc23)[n+](CC)c1`, the IC50 [2] was 2.33 µM (active) and the IC50 [3] was 2.24 µM (active).

With `O=C(NCc1cccs1)N[C@@H](Cc1ccccc1)C(=O)O` the IC50 [4] was 57.6 µM (active).

For `CCCCC(c1nnnn1CC1CCCO1)N1CCN(Cc2ccccc2)CC1` (stereo not drawn), the EC50 [5] was 4.73 µM (active) and the EC50 [6] was 2.37 µM (active).

In the case of `CC1CN(C(=O)c2ccc(NS(=O)(=O)c3ccc(C(C)(C)C)cc3)cc2)CC(C)O1` (stereo not drawn), the EC50 [5] is reported as 5.96 µM (active) and the EC50 [7] is reported as 15.7 µM (active).

For `NC(N)=Nc1nc2ccc([N+](=O)[O-])cc2[nH]1`, the AC50 [8] was “inconclusive”.

For `CN1CCN(S(=O)(=O)c2cccc(C(=O)N3CCN(c4ccccc4F)CC3)c2)CC1`, the IC50 [2] was 10.1 µM (active) and the IC50 [3] was 19.2 µM (active).

For `CSc1nc2nc(-c3ccccc3)cc(O)n2n1`, the IC50 [4] was 28.6 µM (active).

In the case of `COc1ccc(/C=N/NC2=NC(=O)C(CC(=O)O)S2)cc1OCc1ccc(Cl)cc1` (stereo not drawn), the IC50 [4] is reported as 20.3 µM (active) and the IC50 [1] is reported as 66.7 µM (active).

For `Cc1nonc1C(=O)N/N=C/c1ccc([N+](=O)[O-])o1`, the EC50 [9] was 30.2 µM (active), the EC50 [10] was 10.9 µM (active) and the IC50 [11] was > 20 µM (inactive). The IC50 [12] was > 20 µM (inactive), the IC50 [13] was > 20 µM (inactive) and the IC50 [14] was 8.02 µM (active). The EC50 [15] was 1.82 µM (active), the EC50 [16] was 9.04 µM (active) and the IC50 [17] was > 20 µM (inactive).
